Results published in ChEMBL document CHEMBL1152001 (Bioorg Med Chem Lett, 1993).
Non-standard residues stand in square brackets, D forms with d. Residues, ends and D or L forms follow the SMILES beside them. pGlu = O=C1CC[C@@H](C(=O)O)N1

Target: Substance-P receptor (Rattus norvegicus, UniProt P14600)
Assay: Tested for inhibition of tachykinin 1 (NK1) receptor in rat brain synaptosomal membranes using [125I]BH-SP as radioligand
Type: cell membranes, Membrane

Sequence of Substance-P receptor (P14600 whole entry): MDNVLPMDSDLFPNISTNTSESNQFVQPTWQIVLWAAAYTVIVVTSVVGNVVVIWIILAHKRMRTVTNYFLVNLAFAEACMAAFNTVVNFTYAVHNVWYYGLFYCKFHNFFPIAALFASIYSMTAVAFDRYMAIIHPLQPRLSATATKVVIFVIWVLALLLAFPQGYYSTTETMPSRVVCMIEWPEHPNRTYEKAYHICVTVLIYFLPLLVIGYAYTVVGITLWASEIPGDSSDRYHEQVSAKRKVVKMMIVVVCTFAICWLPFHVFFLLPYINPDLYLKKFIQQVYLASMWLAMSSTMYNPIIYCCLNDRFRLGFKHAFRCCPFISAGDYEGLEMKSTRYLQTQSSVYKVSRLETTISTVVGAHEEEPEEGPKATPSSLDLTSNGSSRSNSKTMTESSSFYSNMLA

CSCC[C@H](NC(=O)[C@H](CC(C)C)NC(=O)CNC(=O)[C@H](Cc1ccc(O)cc1)NC(=O)[C@H](Cc1ccccc1)NC(=O)[C@H](CCCCN)NC(=O)[C@H](CC(N)=O)NC(=O)[C@@H]1CCCN1C(=O)[C@H](CC(=O)O)NC(=O)[C@H](C)NC(=O)[C@@H]1CCC(=O)N1)C(N)=O ([pGlu]ADPNKFYGLM-NH2)
IC50: 2.3 nM

CC[C@H](C)[C@H](NC(=O)[C@H](Cc1ccccc1)NC(=O)[C@H](C)NC(=O)[C@H](CC(=O)O)NC(=O)[C@H](CCCCN)NC(=O)[C@H](CO)NC(=O)[C@@H]1CCCN1C(=O)[C@@H]1CCC(=O)N1)C(=O)NCC(=O)N[C@@H](CC(C)C)C(=O)N[C@@H](CCSC)C(N)=O ([pGlu]PSKDAFIGLM-NH2)
IC50: 31 nM

CSCC[C@H](NC(=O)[C@H](CC(C)C)NC(=O)CNC(=O)[C@@H](NC(=O)[C@H](Cc1ccccc1)NC(=O)[C@H](CCC(N)=O)NC(=O)[C@H](CC(=O)O)NC(=O)[C@H](CO)NC(=O)[C@H](CCCCN)NC(=O)[C@@H]1CCCN1C(=O)[C@@H](NC(=O)[C@@H](N)CC(=O)O)C(C)C)C(C)C)C(N)=O [KASSININ]
IC50: 75 nM

CSCC[C@H](NC(=O)[C@H](CC(C)C)NC(=O)CNC(=O)[C@@H](NC(=O)[C@H](Cc1ccccc1)NC(=O)[C@H](Cc1ccccc1)NC(=O)[C@H](CC(=O)O)NC(=O)[C@H](Cc1c[nH]cn1)NC(=O)[C@H](CCSC)NC(=O)[C@@H](N)CC(=O)O)C(C)C)C(N)=O [NEUROKININ B]
IC50: 870 nM
